# Experimental data reported in patent publication US7247641B2, “Compounds, derivatives, compositions, preparation and uses” (MGI GP, Inc., priority 2001, dated 2007).
# Molecular target: T1, purified recombinant human PARP (Homo sapiens, UniProt P09874)
# T1 construct: purchased Trevigan (Gaithersburg, Md.)
# Experiment: PARP enzyme assay, [3H]NAD incorporation, IC50
# Type: biochemical
# Settings: not given
# Procedure: The reaction is initiated by incubating the mixture at 25° C. After 15 minutes of incubation, the reaction is terminated by adding 500 microliters of ice cold 20% (w/v) trichloroacetic acid. The precipitate formed is transferred onto a glass fiber filter (Packard Unifilter-GF/B) and washed three times with ethanol. After the filter is dried, the radioactivity is determined by scintillation counting.
# T1 sequence (P09874 whole entry): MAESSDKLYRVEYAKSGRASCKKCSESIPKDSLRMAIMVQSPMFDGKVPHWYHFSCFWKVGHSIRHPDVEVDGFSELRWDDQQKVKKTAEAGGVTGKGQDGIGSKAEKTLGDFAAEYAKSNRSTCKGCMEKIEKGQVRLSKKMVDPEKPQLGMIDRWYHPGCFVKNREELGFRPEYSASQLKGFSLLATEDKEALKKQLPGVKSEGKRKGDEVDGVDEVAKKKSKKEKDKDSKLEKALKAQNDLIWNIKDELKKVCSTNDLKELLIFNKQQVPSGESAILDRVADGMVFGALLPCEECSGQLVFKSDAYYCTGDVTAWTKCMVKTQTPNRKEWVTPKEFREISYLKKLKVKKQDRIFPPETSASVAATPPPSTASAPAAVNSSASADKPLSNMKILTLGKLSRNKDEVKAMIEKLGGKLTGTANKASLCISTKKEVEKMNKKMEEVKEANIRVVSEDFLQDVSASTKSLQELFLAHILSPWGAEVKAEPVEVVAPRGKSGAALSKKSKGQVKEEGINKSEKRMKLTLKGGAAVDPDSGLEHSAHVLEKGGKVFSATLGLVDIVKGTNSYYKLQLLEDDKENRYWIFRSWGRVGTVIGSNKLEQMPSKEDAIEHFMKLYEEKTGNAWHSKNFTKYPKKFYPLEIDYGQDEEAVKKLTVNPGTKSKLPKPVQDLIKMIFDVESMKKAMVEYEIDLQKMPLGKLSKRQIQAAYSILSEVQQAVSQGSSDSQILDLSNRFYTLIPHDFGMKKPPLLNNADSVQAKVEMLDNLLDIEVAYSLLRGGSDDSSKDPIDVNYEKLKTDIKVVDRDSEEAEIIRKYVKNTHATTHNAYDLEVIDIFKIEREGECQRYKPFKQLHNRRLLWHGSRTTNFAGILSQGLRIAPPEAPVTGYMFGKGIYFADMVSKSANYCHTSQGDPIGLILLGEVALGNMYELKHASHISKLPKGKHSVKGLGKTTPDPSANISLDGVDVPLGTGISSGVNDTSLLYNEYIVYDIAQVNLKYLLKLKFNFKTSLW
row,IC50,Structure (SMILES)
1,80 nM,O=c1[nH]c2c(c3ccccc13)CN(S(=O)(=O)CCN1CCC(N3CCCC3)CC1)CC2 [Compound 24a]

# Same assay, conditions: approximate values, PARP enzyme assay; read-out: IC50
row,IC50,Structure (SMILES)
1,335 nM,O=c1[nH]c2c(c3ccccc13)CN(Cc1ccccc1)CC2 [Compound 6a]
2,182 nM,O=c1[nH]c2c(c3ccc(F)cc13)CN(Cc1ccccc1)CC2 [Compound 6b]
3,220 nM,O=c1[nH]c2c(c3ccccc13)CCN(Cc1ccccc1)C2 [Compound 11]
4,185 nM,O=C(CCCl)N1CCc2[nH]c(=O)c3ccccc3c2C1 [Compound 14a]
5,426 nM,CN(C)CCCN(C)CC(=O)N1CCc2[nH]c(=O)c3ccccc3c2C1 [Compound 16a]
6,1670 nM,CN1CCN(CC(=O)N2CCc3[nH]c(=O)c4ccccc4c3C2)CC1 [Compound 16b]
7,421 nM,CC(O)CNCC(=O)N1CCc2[nH]c(=O)c3ccccc3c2C1 (centres unmarked) [Compound 16c]
8,985 nM,CN(C)CCN(C)CC(=O)N1CCc2[nH]c(=O)c3ccccc3c2C1 [Compound 16d]
9,844 nM,O=C(CN1CCCCC1CO)N1CCc2[nH]c(=O)c3ccccc3c2C1 (centres unmarked) [Compound 16e]
10,13100 nM,O=C(CN1CCN(CCO)CC1)N1CCc2[nH]c(=O)c3ccccc3c2C1 [Compound 16f]
11,644 nM,CN(C)CC(=O)N1CCc2[nH]c(=O)c3ccccc3c2C1 [Compound 16g]
12,1580 nM,O=C(CN1CCc2ccccc2C1)N1CCc2[nH]c(=O)c3ccccc3c2C1 [Compound 16h]
13,668 nM,O=C(CNC[C@H](O)CO)N1CCc2[nH]c(=O)c3ccccc3c2C1 [Compound 16i]
14,134 nM,CCOC(=O)C1CCN(CC(=O)N2CCc3[nH]c(=O)c4ccccc4c3C2)CC1 [Compound 16k]
15,296 nM,O=C1CCN(CC(=O)N2CCc3[nH]c(=O)c4ccccc4c3C2)CC1 [Compound 16l]
16,214 nM,O=C(CN1CC=CCC1)N1CCc2[nH]c(=O)c3ccccc3c2C1 [Compound 16m]
17,282 nM,CN(C)CCCN(C)CCC(=O)N1CCc2[nH]c(=O)c3ccccc3c2C1 [Compound 17a]
18,1800 nM,CN1CCN(CCC(=O)N2CCc3[nH]c(=O)c4ccccc4c3C2)CC1 [Compound 17b]
19,2180 nM,CC(O)CNCCC(=O)N1CCc2[nH]c(=O)c3ccccc3c2C1 (centres unmarked) [Compound 17c]
20,180 nM,CN(CCC(=O)N1CCc2[nH]c(=O)c3ccccc3c2C1)CC(=O)OC(C)(C)C [Compound 17d]

row,IC50,Structure (SMILES)
1,385 nM,CN(C)CCN(C)CCC(=O)N1CCc2[nH]c(=O)c3ccccc3c2C1 [Compound 17e]
2,435 nM,O=C(CCN1CCCCC1CO)N1CCc2[nH]c(=O)c3ccccc3c2C1 (centres unmarked) [Compound 17f]
3,244 nM,O=C(CCN1CCc2ccccc2C1)N1CCc2[nH]c(=O)c3ccccc3c2C1 [Compound 17g]
4,250 nM,O=C(CCNC[C@H](O)CO)N1CCc2[nH]c(=O)c3ccccc3c2C1 [Compound 17h]
5,71 nM,O=C(CCN1CCCCC1)N1CCc2nc(O)c3ccccc3c2C1 [Compound 17i]
6,558 nM,CCOC(=O)C1CCN(CCC(=O)N2CCc3[nH]c(=O)c4ccccc4c3C2)CC1 [Compound 17j]
7,111 nM,O=C1CCN(CCC(=O)N2CCc3[nH]c(=O)c4ccccc4c3C2)CC1 [Compound 17k]
8,164 nM,O=C(CCNCCc1ccccc1F)N1CCc2[nH]c(=O)c3ccccc3c2C1 [Compound 17m]
9,185 nM,CN(C)CCCN(C)CCCC(=O)N1CCc2[nH]c(=O)c3ccccc3c2C1 [Compound 18a]
10,241 nM,CN1CCN(CCCC(=O)N2CCc3[nH]c(=O)c4ccccc4c3C2)CC1 [Compound 18b]
11,87 nM,CC(O)CNCCCC(=O)N1CCc2[nH]c(=O)c3ccccc3c2C1 (centres unmarked) [Compound 18c]
12,495 nM,CN(CCCC(=O)N1CCc2[nH]c(=O)c3ccccc3c2C1)CC(=O)OC(C)(C)C [Compound 18d]
13,492 nM,CN(C)CCN(C)CCCC(=O)N1CCc2[nH]c(=O)c3ccccc3c2C1 [Compound 18e]
14,672 nM,O=C(CCCN1CCCCC1CO)N1CCc2[nH]c(=O)c3ccccc3c2C1 (centres unmarked) [Compound 18f]
15,479 nM,O=C(CCCN1CCN(CCO)CC1)N1CCc2[nH]c(=O)c3ccccc3c2C1 [Compound 18g]
16,152 nM,CN(C)CCCC(=O)N1CCc2[nH]c(=O)c3ccccc3c2C1 [Compound 18h]
17,457 nM,O=C(CCCN1CCCCC1)N1CCc2[nH]c(=O)c3ccccc3c2C1 [Compound 18j]
18,482 nM,CCOC(=O)C1CCN(CCCC(=O)N2CCc3[nH]c(=O)c4ccccc4c3C2)CC1 [Compound 18k]
19,251 nM,O=C1CCN(CCCC(=O)N2CCc3[nH]c(=O)c4ccccc4c3C2)CC1 [Compound 18l]
20,410 nM,O=C(CCCN1CC=CCC1)N1CCc2[nH]c(=O)c3ccccc3c2C1 [Compound 18m]

row,IC50,Structure (SMILES)
1,1320 nM,O=C(CCCNCCc1ccccc1F)N1CCc2[nH]c(=O)c3ccccc3c2C1 [Compound 18n]
2,322 nM,O=C(CCCNC[C@@H]1CCCO1)N1CCc2[nH]c(=O)c3ccccc3c2C1 [Compound 18o]
3,167 nM,O=C(CCCNC[C@H]1CCCO1)N1CCc2[nH]c(=O)c3ccccc3c2C1 [Compound 18p]
4,251 nM,C[C@H](CO)NCCCC(=O)N1CCc2[nH]c(=O)c3ccccc3c2C1 [Compound 18q]
5,357 nM,O=C(CCCNCC(O)c1ccccc1)N1CCc2[nH]c(=O)c3ccccc3c2C1 (centres unmarked) [Compound 18r]
6,156 nM,O=C(CCCNCC1(O)CCCCC1)N1CCc2[nH]c(=O)c3ccccc3c2C1 [Compound 18s]
7,90 nM,NCC(=O)N1CCc2[nH]c(=O)c3ccccc3c2C1 [Compound 21a]
8,698 nM,CC(C)C(N)C(=O)N1CCc2[nH]c(=O)c3ccccc3c2C1 (centres unmarked) [Compound 21c]
9,268 nM,O=C(C1CCCN1)N1CCc2[nH]c(=O)c3ccccc3c2C1 (centres unmarked) [Compound 21d]
10,1230 nM,NC(Cc1ccccc1)C(=O)N1CCc2[nH]c(=O)c3ccccc3c2C1 (centres unmarked) [Compound 21i]
11,382 nM,NC(Cc1ccc(O)cc1)C(=O)N1CCc2[nH]c(=O)c3ccccc3c2C1 (centres unmarked) [Compound 21j]
12,3710 nM,N[C@H](Cc1ccc(O)cc1)C(=O)N1CCc2[nH]c(=O)c3ccccc3c2C1 [Compound 21k]
13,62 nM,NCCC(=O)N1CCc2[nH]c(=O)c3ccccc3c2C1 [Compound 21l]
14,58 nM,CC(=O)N1CCc2[nH]c(=O)c3ccccc3c2C1 [Compound 21n]
15,105 nM,O=C(NCCN1CCCCC1)N1CCc2[nH]c(=O)c3ccccc3c2C1 [Compound 21o]
16,799 nM,O=C(c1cccc(CCl)c1)N1CCc2c([nH]c(=O)c3ccccc23)C1 [Compound 21p]
17,36 nM,O=C(O)c1cccc(S(=O)(=O)N2CCc3[nH]c(=O)c4ccccc4c3C2)c1 [Compound 22a]
18,292 nM,C=CS(=O)(=O)N1CCc2[nH]c(=O)c3ccccc3c2C1 [Compound 22c]
19,441 nM,CN1CCN(C(=O)c2cccc(S(=O)(=O)N3CCc4[nH]c(=O)c5ccccc5c4C3)c2)CC1 [Compound 23a]
20,304 nM,O=C(c1cccc(S(=O)(=O)N2CCc3[nH]c(=O)c4ccccc4c3C2)c1)N1CCC(N2CCCC2)CC1 [Compound 23b]

# System: not given
# Experiment: not given
# Settings: not given
row,melting point,Structure (SMILES)
1,187 to 192 °C,"O=C1NCN2c3ccccc3Sc3cccc1c32 [Example 1, 1,2-Dihydro-7-thia-2,11b-diaza-benzo[de]anthracen-3-one]"
2,227 to 228 °C,"O=C1NCN2c3ccc(S(=O)(=O)NCCN4CCOCC4)cc3Sc3cccc1c32 [Example 3, 3-Oxo-2,3-dihydro-1H-7-thia-2,11b-diaza-benzo[de]anthracene-9-(N2-morpholin-4-yl-ethyl)sulfonamide]"
3,170 to 172 °C,"O=C1NCN2c3ccc(S(=O)(=O)NCCN4CCCCC4)cc3Sc3cccc1c32 [Example 4, 3-Oxo-2,3-dihydro-1H-7-thia-2,11b-diaza-benzo[de]anthracene-9-(N-2-piperidin-1-yl-ethyl)-sulfonamide]"
4,205 to 208 °C,"O=C1NCN2c3ccc([N+](=O)[O-])cc3Sc3cccc1c32 [Example 5, 9-Nitro-1,2-dihydro-7-thia-2,11b-diaza-benzo[de]anthracen-3-one]"
5,> 300 °C,"O=C1NCN2c3ccccc3Oc3cccc1c32 [Example 6, 1,2-Dihydro-7-oxa-2,11b-diaza-benzo[de]anthracen-3-one]"
6,250 to 255 °C,"O=C1NCn2c3ccccc3c(=O)c3cccc1c32 [Example 8, 1,2-Dihydro-2,11b-diaza-benzo[de]anthracene-3,7-dione]"
7,288 to 292 °C,O=C1NC(c2ccccc2)n2c3ccccc3c(=O)c3cccc1c32 (centres unmarked) [Example 9]
